{"source": "paper PMC11965660", "about": "“Isobavachalcone ameliorates Alzheimer disease pathology by autophagy-mediated clearance of amyloid beta and inhibition of NLRP3 inflammasome in primary astrocytes and 5x-FAD mice” (Frontiers in Pharmacology, 2025)", "key": {"[1]": {"test": "Pharmacokinetic analysis in plasma and brain", "assay_type": "in vivo", "conditions": "C57BL/6J mice", "procedure": "C57BL/6J (Jax:000664) male mice were used for pharmacokinetic analysis of IBC. Mice were randomly sorted into 9 groups (n = 5). 30 mg/kg oral dose of IBC (1% DMSO +70% PEG-200 + 29% water) was given to mice. Blood or brain samples were collected at 0, 0.25, 0.5, 1, 2, 4, 6, 8 and 24 h. The plasma (100 µL) sample was processed with ethyl acetate (200 µL) containing IS (150 ng/mL) and centrifuged at 300 g for 10 min. The organic layer was separated and dried in a vacuum, reconstituted with acetonitrile, and analyzed by LC-MS/MS [SRM transition of IBC and IS (Phenacetin) is 325.2 & gt; 149.0 and 180.2 & gt; 110.2 in Positive mode]. Brain homogenate was prepared using the weighted amount of brain tissue in water at the concentration level of 350 mg/mL and processed similarly to plasma samples."}, "[2]": {"test_system": "5x-FAD mice", "test": "Rotarod test", "assay_type": "in vivo", "from_the_text": "Hemizygous 5x-FAD transgenic mice (B6.Cg-Tg(APPSwFlLon, PSEN1*M146L*L286V) 6799Vas/Mmjax; MMRRC Strain: 034848-JAX) on congenic C57BL/6J genetic background were used for experiments. The 5x-FAD mice were genotyped using APP-specific qPCR probes to detect the transgene as per the protocol of Jackson Laboratory. Six months old 5x-FAD mice were randomly divided into three groups (n = 5), based on their body weights, with three males and two females in each group. We used mixed-cohort of males and females for our study to exclude any gender biased effect of IBC. Also, AD symptoms are more pronounced in females than in males ([Aggarwal and Mielke, 2023]), making it possible that males and females respond differently to the drug and treatment. […]\nTo check the effect of IBC on the behavior of 5x-FAD mice, open field test (OFT), rotarod (Make; Ugo Basile, rota-rod for mice 7650) and radial arm maze (Make; Ugo Basile) tests were performed. […] After acclimatizing mice with rotarod for 5 days, their latency to fall was calculated on the day of analysis. […] Distance traveled, speed, time spent in corner and center zones and mobile episodes were recorded through an automated video tracking system using AnyMaze software. […] The movement of mice was tracked with the help of automated AnyMaze software connected with a tracking camera and various memory retention parameters were assessed."}, "[3]": {"test_system": "Aβ plaques", "test": "Immunohistochemistry of Aβ in hippocampus", "assay_type": "in vivo, 5x-FAD mice", "conditions": "for average number of Aβ plaques: 5x-FAD mice", "from_the_text": "Hemizygous 5x-FAD transgenic mice (B6.Cg-Tg(APPSwFlLon, PSEN1*M146L*L286V) 6799Vas/Mmjax; MMRRC Strain: 034848-JAX) on congenic C57BL/6J genetic background were used for experiments. The 5x-FAD mice were genotyped using APP-specific qPCR probes to detect the transgene as per the protocol of Jackson Laboratory. Six months old 5x-FAD mice were randomly divided into three groups (n = 5), based on their body weights, with three males and two females in each group. We used mixed-cohort of males and females for our study to exclude any gender biased effect of IBC. Also, AD symptoms are more pronounced in females than in males ([Aggarwal and Mielke, 2023]), making it possible that males and females respond differently to the drug and treatment. Considering this, it is important to show effect of IBC on both sexes. At this age, Aβ deposition and neuroinflammation has already progressed in these mice. We have used IBC as a curative drug rather than a preventive drug. Prior to the initiation of the study, all the animals were acclimatized for 1 week under standard laboratory conditions; animals were drug naive with no prior procedures performed. All testing were performed from 1 to 4 p.m. IBC was orally (OD) given to two groups at different doses, 25 mg/kg (1% DMSO, 2% Tween 80, 19% PEG200, and 78% distilled water) and 50 mg/kg (1% DMSO, 5% Tween 80, 19% PEG200% and 75% distilled water) using oral gavage. 5x-FAD control mice were administered with vehicle (1% DMSO, 5% Tween 80, 19% PEG200% and 75% distilled water). For behavioral and Immunohistochemistry assays, experimenters were blinded to animal identity while carrying out the procedures.\nMice’s hippocampus tissue was fixed in 10% formalin. Dehydrated tissue slices were made and placed on slides. For analysis, tissue was rehydrated following subsequent incubation in xylene, xylene: ethanol, 100% ethanol, 90% ethanol, 70% and 50% ethanol. After tissue rehydration, cells were permeabilized using 0.4% Triton-X100 for 10 min. […] Images were taken in a CQ1 high throughput imaging system and analyzed using cell pathfinder software."}, "[4]": {"test_system": "LC3B and LAMP1", "test": "LC3B and LAMP1 co-localization by confocal microscopy", "assay_type": "cell-based, C57BL/6J mice", "conditions": "primary astrocytes, 10 μM, 24 h", "procedure": "Cells were seeded on coverslips in 6 well plates. After treatments, cells were fixed with 4% paraformaldehyde (PFA) for 15 min and permeabilized with 0.1% Triton-X 100 for 7 min. Blocking was done for 30 min with 2% BSA, followed by overnight incubation with primary antibody. Alexa fluor conjugated secondary antibody incubation was given to cells for 1 h for labeling. The nucleus was stained with 4,6-diamidino-2-phenylindole (DAPI) (1 μg/mL) for 10 min. Following staining, the coverslips were mounted on slides using mounting media (PBS and glycerol at a ratio of 1:9). Cells were washed thrice with PBS after each incubation. The images were acquired in a CQ1 high-throughput imaging system."}, "[5]": {"test_system": "Aβ42", "test": "Aβ clearance assay in primary astrocytes", "assay_type": "cell-based, C57BL/6J mice", "procedure": "Aβ42-HiLyte fluor488 peptide was prepared following the manufacturer’s protocol (Anaspec Inc.). Primary astrocytes seeded on coverslips were treated with IBC (10 μM) or rapamycin (24 h). After 12 h, 2 μg/ml fluorochrome tagged (Hilyte fluor488) Aβ42 protein was added to cells for another 12 h. Bafilomycin A1 was given 3 h prior to experiment termination. After the end of the assay, cells were washed with PBS and cells were fixed with 4% PFA, permeabilized with Triton-X 100, and the nucleus was stained with DAPI, as mentioned above. Similarly, slides were prepared, and images were taken and analyzed in the CQ1 high throughput imaging system.\nAMPK expression was knocked down from the cells by using siRNA against AMPK using FuGENE HD for 24 h. Primary astrocytes seeded in 6 well plates were incubated in OPTI-MEM media for 30 min prior to transfection. The transfection mixture was prepared and kept in sterile condition for 20 min before being added to the cells. Following this, cells were treated for NLRP3 inflammasome activation as described above."}, "[6]": {"conditions": "male, mouse, blood plasma, 30 mg/kg oral"}, "[7]": {"conditions": "male, mouse, brain, 30 mg/kg oral"}}, "note": "“Also recorded” adds a separate entry of the source. Where two headings read alike, the source gives them in different places.", "data": [{"smiles": "CC(C)=CCc1c(O)ccc(C(=O)/C=C/c2ccc(O)cc2)c1O", "note": "[IBC, isobavachalcone]", "values": [{"measurement": "Cl", "setting": "[1]; blood plasma, 30 mg/kg oral", "value": "833 ± 120", "unit": "mL/min/kg"}, {"measurement": "Vd", "setting": "[1]; blood plasma, 30 mg/kg oral", "value": "355 ± 81", "unit": "L/kg"}, {"measurement": "AUC0-t", "setting": "[1]; brain, 30 mg/kg oral", "value": "72 ± 7", "unit": "ng·h/g"}, {"measurement": "AUC0-∞", "setting": "[1]; brain, 30 mg/kg oral", "value": "79 ± 7", "unit": "ng·h/g"}, {"measurement": "Kp", "setting": "[1]; male, mouse, brain and plasma, 30 mg/kg oral, read-out: brain-to-plasma ratio", "value": "0.12 to 0.16"}, {"measurement": "AUC(0-inf)", "setting": "[1]; [6]", "value": "637 ± 74", "unit": "ng·h/mL"}, {"measurement": "Cmax", "setting": "[1]; [6]", "value": "208 ± 46", "unit": "ng/mL"}, {"measurement": "Tmax", "setting": "[1]; [6]", "value": "0.6 ± 0.1", "unit": "h"}, {"measurement": "half-life", "setting": "[1]; [6]", "value": "5.6 ± 1.5", "unit": "h"}, {"measurement": "AUC0-t", "setting": "[1]; male, mouse, blood plasma, 30 mg/kg oral, read-out: AUC0-t", "value": "548 ± 59", "unit": "ng·h/mL"}, {"measurement": "Cmax", "setting": "[1]; [7]", "value": "34 ± 4", "unit": "ng/g"}, {"measurement": "Tmax", "setting": "[1]; [7]", "value": "0.6 ± 0.1", "unit": "h"}, {"measurement": "half-life", "setting": "[1]; [7]", "value": "1.8 ± 0.4", "unit": "h"}, {"measurement": "blood-brain barrier penetration", "setting": "[1]; single dose 30 mg/kg p.o., 30 mg/kg", "value": "low penetration; also recorded: low brain availability"}, {"measurement": "latency to fall from rotarod", "setting": "[2]; 25 mg/kg oral", "value": 92, "unit": "s"}, {"measurement": "latency to fall from rotarod", "setting": "[2]; 50 mg/kg oral", "value": 118, "unit": "s"}, {"measurement": "average number of Aβ plaques", "setting": "[3]; 25 mg/kg oral 2 months", "value": 21}, {"measurement": "average number of Aβ plaques", "setting": "[3]; 50 mg/kg oral 2 months", "value": 15}, {"measurement": "total Aβ fluorescence intensity", "setting": "[3]; 25 and 50 mg/kg, vs 5x-FAD control", "value": "highly significant decline"}, {"measurement": "co-localization of LC3B and LAMP1", "setting": "[4]", "value": "proximity of LC3B and LAMP1"}, {"measurement": "intracellular Aβ level", "setting": "[5]; 10 μM with bafilomycin A1", "value": "increased"}, {"measurement": "effect on clearance of Aβ", "setting": "[5]; 10 μM with siAMPK", "value": "complete reversal"}, {"measurement": "intracellular Aβ42-HiLyte fluor488 fluorescence", "setting": "[5]; 10 μM, 24 h, vs cells with Aβ alone", "value": "significantly low fluorescence"}]}]}
